Experimental data taken from publication PMC8546421, “Molecular modelling of the FOXO4-TP53 interaction to design senolytic peptides for the elimination of senescent cancer cells” (EBioMedicine, 2021).
Read-outs that look alike come from different tables or passages of the source. Where no end group is shown, it is not given here.

Assays:
[1] = Systemic delivery to aged mice, blood counts, weight, plasma urea; format: in vivo, mouse
[2] = target: T1, TP53 (Homo sapiens, UniProt P04637); test: Bio-layer Interferometry, TP53; format: binding; conditions: BLI
T1 construct: purchased Millipore Sigma Aldrich 23-034
T1 sequence (P04637 whole entry): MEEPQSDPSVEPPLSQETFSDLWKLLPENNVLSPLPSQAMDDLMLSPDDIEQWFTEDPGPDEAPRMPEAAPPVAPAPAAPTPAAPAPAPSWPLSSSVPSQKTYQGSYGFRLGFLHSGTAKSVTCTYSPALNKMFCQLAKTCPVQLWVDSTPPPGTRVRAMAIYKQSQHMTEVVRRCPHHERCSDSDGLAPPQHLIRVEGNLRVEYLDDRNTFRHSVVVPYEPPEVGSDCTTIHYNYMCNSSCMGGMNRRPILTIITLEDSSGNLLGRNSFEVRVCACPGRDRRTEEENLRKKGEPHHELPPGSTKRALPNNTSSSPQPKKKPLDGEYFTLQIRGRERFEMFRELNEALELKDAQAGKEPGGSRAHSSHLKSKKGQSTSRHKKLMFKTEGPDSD
Protocol: Bio-layer Interferometry (BLI) measurements were performed on a ForteBio Octet RED384 instrument (Molecular Devices) using ForteBio Data Acquisition software 9.0 and ForteBio biosensors (Molecular Devices) according to the manufacturer's instructions. Kinetic assays were carried out at 30°C using settings of Standard Kinetics Acquisition rate (5.0 Hz, averaging by 20) at a sample plate shake speed of 1,000 rpm. Streptavidin sensors (SA) (ForteBio) equilibrated in PBS were mock loaded (no ligand reference sensor) or loaded with 50 nM of N- terminal biotinylated ES2 peptide (New England Peptide, Inc.) with an approximate response of 1 nm. Ligand loaded SA sensors equilibrated in Kinetics buffer (ForteBio) to establish a baseline, were dipped into wells containing 2-fold dilutions of TP53 (Millipore Sigma Aldrich; Cat# 23-034), FOXO4 (OriGene Technologies; Cat# TP760655) or GFP analytes in kinetics buffer, or buffer alone (reference sample). Increasing concentrations of analytes ranging from 6.2 - 200 nM were allowed to associate for 240 secs, followed by 600 sec dissociation step where the TP53/FOXO4-bound sensors were washed with kinetics buffer. Binding curves were analysed using ForteBio Data Analysis HT 10.0 evaluation software. To control for background signal and non-specific binding, raw experimental data were processed by subtracting reference biosensor and reference sample (no ligand). Processed data from at least six different concentrations of analyte binding were globally fit to a 1:1 Langmuir binding model to calculate the association rate constant ka, the dissociation rate constant kd to achieve R^2 > 0.90. Equilibrium dissociation constants KD which defines the strength of the interaction or affinity was calculated as the kinetic dissociation rate constant divided by the kinetic association rate constant.

[3] = system: PMAIP1 (NOXA) and BBC3 (PUMA); test: ddPCR of TP53 target genes; format: cell-based, human
Protocol: Primers and probes were designed specifically for ddPCR for human BBC3 (Bio-Rad Cat# 10031255, Assay ID dHsaCPE5034069) and PMAIP1(Bio-Rad Cat# 10031252, Assay ID dHsa5037552) genes. RNA was extracted using the Qiagen RNeasy Kit (Cat# 74004). 5 ng of RNA was used for 22 µl PCR reaction mixtures using the One-Step RT-ddPCR Advanced Kit for Probes (Bio-Rad Cat# 1864022) following the manufacturer's protocol. ddPCR droplets were generated using the Bio-Rad Automated Droplet Generator. Plate containing ddPCR droplets was sealed and RT-PCR was performed using the C-1000 Thermal Cycler (Bio-Rad). ddPCR was performed in the QX200 Droplet Digital PCR System (Bio-Rad). Analysis of the ddPCR data was performed using QX200 analysis software.

[4] = system: A375, B16F10, HCT116, MCF7, IMR90 and MCF10A cells; test: ES2 viability (MTS) in cell line panel, senescent vs dividing; format: cell-based
Protocol: Cell lines were treated with chemotherapy, doxorubicin (Sigma, Cat. No. 2252) to induce senescence (200 nM for HCT116, 100 nM for B16-F10 and MCF7, 50 nM for SW480 and DLD-1, 40 nM for A375-Luc/iRFP and MCF10a). MCF7 cells were treated with CDK4/6 inhibitor, palbociclib (Selleck Chemicals: S1116) to induce senescence (5 µM). A375 cells were treated with Braf inhibitor, Dabrafenib (Selleck Chemicals: S2807), to induce senescence (10 µM). Peptide efficacy experiments were performed by seeding 10,000 – 20,000 cells in a 96-well plate. The cells were given doxorubicin twice to make the cells senescent. After removal of doxorubicin, the plate was treated with varying concentrations of peptide. The peptide was replenished daily for two days. Cellular proliferation was quantified using the Promega CellTiter 96™ AQueous One Solution Cell Proliferation Assay (MTS) after 2 hours according to the manufacturer's protocol (Promega, G3581). To control for the charge of ES2, ProteoJuice (Millipore Sigma, 71281) was used to deliver ES2 using the manufacturers protocol, except 50 µL of 2 mM ES2 was mixed with 25 µL of ProteoJuice. Varying concentrations of the mixture were administered to A375 cells along with a control of only ProteoJuice.

[5] = aged mice (82 weeks), 3 mg ES2 via tail vein weekly for three weeks, n=5

PRKGGRRRRAWGRRRRRRRRRRRRRRAPRKRLTLA [ES2]
change in weight of the mice [1, 5]: no significant change
changes in numbers of white blood cells, platelets, or red blood cells [1, 5]: non-significant changes
toxicity after multiple doses ([1]; aged mice, 3 weekly i.v. doses): minimal toxicity
plasma urea levels ([1]; aged mice, endpoint, n=5): while not significant, were reduced
kon ([2]; 1:1 Langmuir binding model, read-out: association rate ka): 38000 M⁻¹ s⁻¹
kd ([2]; biotinylated ES2 immobilized on streptavidin sensors, analyte 6.25-200 nM, 30°C, global 1:1 Langmuir fit): 8.7e-05 ± 6.3e-07 s⁻¹
kon ([2]; biotinylated ES2 immobilized on streptavidin sensors, analyte 6.25-200 nM, 30°C, global 1:1 Langmuir fit, read-out: ka): 38000 M⁻¹ s⁻¹
Kd ([2]; biotinylated ES2 immobilized on streptavidin sensors, analyte 6.25-200 nM, 30°C, kd/ka): 2.3 ± 0.02 nM
NOXA and PUMA levels in senescent cells ([3]; 30 minutes after ES2 treatment, n=6, p<0.001): significant increase in levels
NOXA and PUMA levels in dividing cells ([3]; dividing cells): no response
concentration of ES2 resulting in cell death, doxorubicin vs other pro-senescence agents ([4]; A375 with Dabrafenib, MCF7 with Palbociclib): no difference in concentration of ES2 resulting in cell death
IC50 in dividing cells relative to senescent cells ([4]; doxorubicin-induced senescence, all cell lines): at least 3 times
